Data: US20250353873A1, “COMPOUNDS AND METHODS FOR MODULATING APOE EXPRESSION” (Ionis Pharmaceuticals, Inc., priority 2024, published 2025)
pIC50: −log10 of the molar value. Strand notation (5' to 3'): a small letter for the sugar, then the base; units joined by * are phosphorothioate-linked, units joined directly phosphodiester-linked; [ ] holds rarer units or linkages, { } end groups; capitals alone tell only the bases. [ms] = mesyl phosphoramidate linkage; k = constrained ethyl (cEt); [5mC] = 5-methylcytosine; d = 2'-deoxy (DNA)

These substances were tested on human APOE RNA (assay: Dose-dependent inhibition of human APOE RNA in HepG2 cells, electroporation, 50,000 cells per well, RT-PCR normalized to GAPDH (Example 4, Tables 8-10)). Conditions: 5 nM; HepG2, electroporation, 24-hour treatment.
Type: cell-based
In short: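 Readout is percent APOE RNA versus untreated controls, measured by RT-PCR (primer probe set RTS3073) and normalized to human GAPDH. Modified oligonucleotides were delivered by electroporation at varying doses into HepG2 cells plated at 50,000 per well.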

Substance | APOE RNA (% UTC)
1746799 (k[5mC]*dT[ms]kT*dG[ms]kG*dT[ms]dG[ms]dA[ms]dA[ms]dT*d[5mC]*dT*dT*dT*dA[ms]dT*kT*dA[ms]kA*kA; antisense) [Compound 1746799] | 115

Same assay, conditions: 13 nM; HepG2, electroporation, 24-hour treatment

Substance | APOE RNA (% UTC)
1746799 (k[5mC]*dT[ms]kT*dG[ms]kG*dT[ms]dG[ms]dA[ms]dA[ms]dT*d[5mC]*dT*dT*dT*dA[ms]dT*kT*dA[ms]kA*kA; antisense) [Compound 1746799] | 130

Same assay, conditions: 33 nM; HepG2, electroporation, 24-hour treatment

Substance | APOE RNA (% UTC)
1746799 (k[5mC]*dT[ms]kT*dG[ms]kG*dT[ms]dG[ms]dA[ms]dA[ms]dT*d[5mC]*dT*dT*dT*dA[ms]dT*kT*dA[ms]kA*kA; antisense) [Compound 1746799] | 153

Same assay, conditions: 82 nM; HepG2, electroporation, 24-hour treatment

Substance | APOE RNA (% UTC)
1746799 (k[5mC]*dT[ms]kT*dG[ms]kG*dT[ms]dG[ms]dA[ms]dA[ms]dT*d[5mC]*dT*dT*dT*dA[ms]dT*kT*dA[ms]kA*kA; antisense) [Compound 1746799] | 125

Same assay, conditions: 205 nM; HepG2, electroporation, 24-hour treatment

Substance | APOE RNA (% UTC)
1746799 (k[5mC]*dT[ms]kT*dG[ms]kG*dT[ms]dG[ms]dA[ms]dA[ms]dT*d[5mC]*dT*dT*dT*dA[ms]dT*kT*dA[ms]kA*kA; antisense) [Compound 1746799] | 106

Same assay, conditions: 512 nM; HepG2, electroporation, 24-hour treatment

Substance | APOE RNA (% UTC)
1746799 (k[5mC]*dT[ms]kT*dG[ms]kG*dT[ms]dG[ms]dA[ms]dA[ms]dT*d[5mC]*dT*dT*dT*dA[ms]dT*kT*dA[ms]kA*kA; antisense) [Compound 1746799] | 84

Same assay, conditions: 1,280 nM; HepG2, electroporation, 24-hour treatment

Substance | APOE RNA (% UTC)
1746799 (k[5mC]*dT[ms]kT*dG[ms]kG*dT[ms]dG[ms]dA[ms]dA[ms]dT*d[5mC]*dT*dT*dT*dA[ms]dT*kT*dA[ms]kA*kA; antisense) [Compound 1746799] | 52

Same assay, conditions: 3,200 nM; HepG2, electroporation, 24-hour treatment

Substance | APOE RNA (% UTC)
1746799 (k[5mC]*dT[ms]kT*dG[ms]kG*dT[ms]dG[ms]dA[ms]dA[ms]dT*d[5mC]*dT*dT*dT*dA[ms]dT*kT*dA[ms]kA*kA; antisense) [Compound 1746799] | 23

Same assay, conditions: 8,000 nM; HepG2, electroporation, 24-hour treatment

Substance | APOE RNA (% UTC)
1746799 (k[5mC]*dT[ms]kT*dG[ms]kG*dT[ms]dG[ms]dA[ms]dA[ms]dT*d[5mC]*dT*dT*dT*dA[ms]dT*kT*dA[ms]kA*kA; antisense) [Compound 1746799] | 24

Same assay, conditions: 20,000 nM; HepG2, electroporation, 24-hour treatment

Substance | APOE RNA (% UTC)
1746799 (k[5mC]*dT[ms]kT*dG[ms]kG*dT[ms]dG[ms]dA[ms]dA[ms]dT*d[5mC]*dT*dT*dT*dA[ms]dT*kT*dA[ms]kA*kA; antisense) [Compound 1746799] | 33

Same assay, conditions: HepG2, electroporation, 24-hour treatment

Substance | pIC50
1746799 (k[5mC]*dT[ms]kT*dG[ms]kG*dT[ms]dG[ms]dA[ms]dA[ms]dT*d[5mC]*dT*dT*dT*dA[ms]dT*kT*dA[ms]kA*kA; antisense) [Compound 1746799] | 5.76

The substances below were run on human APOE RNA (assay: Activity in APOE C57BL/6NTac-Apoeem7250 knock-in mice, single ICV bolus, 4 weeks (Example 10)). Conditions: cortex; single ICV bolus 300 μg; 4 weeks post treatment; normalized to mouse Ppia.
Type: in vivo
In short: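 Human APOE RNA, quantified by real-time RT-PCR with RTS3073 and normalized to mouse Ppia, was read in cortical brain and spinal cord 4 weeks post dosing. Dosing was a single ICV bolus of 300 μg per knock-in mouse; values are % of PBS-treated animals.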

Substance | APOE RNA (% control) Cortex [% control]
1746799 (k[5mC]*dT[ms]kT*dG[ms]kG*dT[ms]dG[ms]dA[ms]dA[ms]dT*d[5mC]*dT*dT*dT*dA[ms]dT*kT*dA[ms]kA*kA; antisense) [Compound 1746799] | 47

Same assay, conditions: spinal cord; single ICV bolus 300 μg; 4 weeks post treatment; normalized to mouse Ppia

Substance | APOE RNA (% control) Spinal Cord [% control]
1746799 (k[5mC]*dT[ms]kT*dG[ms]kG*dT[ms]dG[ms]dA[ms]dA[ms]dT*d[5mC]*dT*dT*dT*dA[ms]dT*kT*dA[ms]kA*kA; antisense) [Compound 1746799] | 42

What follows are substances tested on human APOE RNA (assay: Activity in APOE C57BL/6NTac-Apoeem7250 knock-in mice, single ICV bolus, 8 weeks (Example 11)). Conditions: cortex; single ICV bolus 300 μg; 8 weeks post treatment; normalized to mouse Ppia.
Type: in vivo
In short: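 Cortical and spinal cord human APOE RNA quantified by RT-qPCR 8 weeks after a single 300 μg ICV dose in knock-in mice, Ppia-normalized. Values are percent of levels in PBS-treated animals.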

Substance | APOE RNA (% control) Cortex [% control]
1746799 (k[5mC]*dT[ms]kT*dG[ms]kG*dT[ms]dG[ms]dA[ms]dA[ms]dT*d[5mC]*dT*dT*dT*dA[ms]dT*kT*dA[ms]kA*kA; antisense) [Compound 1746799] | 45

Same assay, conditions: spinal cord; single ICV bolus 300 μg; 8 weeks post treatment; normalized to mouse Ppia

Substance | APOE RNA (% control) Spinal Cord [% control]
1746799 (k[5mC]*dT[ms]kT*dG[ms]kG*dT[ms]dG[ms]dA[ms]dA[ms]dT*d[5mC]*dT*dT*dT*dA[ms]dT*kT*dA[ms]kA*kA; antisense) [Compound 1746799] | 39

These substances were tested on human APOE RNA (assay: Duration of action study in APOE C57BL/6NTac-Apoeem7250 knock-in mice (Example 16)). Conditions: cortex; 300 μg ICV; 112 days post-dose.
Type: in vivo
Description: Modified oligonucleotides described above were tested in the APOE C57BL/6NTac-Apoeem7250 knock-in mouse model described above.
APOE C57BL/6NTac-Apoeem7250 knock-in mice were divided into groups of 2-4 mice each. Each mouse received a single intracerebroventricular (ICV) bolus of 300 μg of modified oligonucleotide. A group of 2-4 mice received a single ICV bolus with PBS as a negative control.
Mice were sacrificed at various timepoints as indicated in the table below and RNA was extracted from cortical brain tissue and spinal cord for quantitative real-time RT-PCR analysis of RNA expression of APOE using primer probe set RTS3073 (described herein above). APOE RNA levels were normalized to mouse Ppia. Mouse Ppia was amplified using primer probe set m_cyclo24 (described herein above). Results are presented as percent human APOE RNA relative to the amount of human APOE RNA in PBS treated animals, (% control). Each experiment is identified in separate tables below.

Substance | APOE RNA (% control) Cortex [% control]
1746799 (k[5mC]*dT[ms]kT*dG[ms]kG*dT[ms]dG[ms]dA[ms]dA[ms]dT*d[5mC]*dT*dT*dT*dA[ms]dT*kT*dA[ms]kA*kA; antisense) [Compound 1746799] | 46

Same assay, conditions: cortex; 300 μg ICV; 140 days post-dose

Substance | APOE RNA (% control) Cortex [% control]
1746799 (k[5mC]*dT[ms]kT*dG[ms]kG*dT[ms]dG[ms]dA[ms]dA[ms]dT*d[5mC]*dT*dT*dT*dA[ms]dT*kT*dA[ms]kA*kA; antisense) [Compound 1746799] | 70

Same assay, conditions: spinal cord; 300 μg ICV; 112 days post-dose

Substance | APOE RNA (% control) Spinal Cord [% control]
1746799 (k[5mC]*dT[ms]kT*dG[ms]kG*dT[ms]dG[ms]dA[ms]dA[ms]dT*d[5mC]*dT*dT*dT*dA[ms]dT*kT*dA[ms]kA*kA; antisense) [Compound 1746799] | 78

Same assay, conditions: spinal cord; 300 μg ICV; 140 days post-dose

Substance | APOE RNA (% control) Spinal Cord [% control]
1746799 (k[5mC]*dT[ms]kT*dG[ms]kG*dT[ms]dG[ms]dA[ms]dA[ms]dT*d[5mC]*dT*dT*dT*dA[ms]dT*kT*dA[ms]kA*kA; antisense) [Compound 1746799] | 66
